Here are results for four compounds from patent US7981882B2, “6-N-linked heterocycle-substituted 2,3,4,5-tetrahydro-1H-benzo[d]azepines as 5-HT2C receptor agonists” (Eli Lilly and Company, priority 2005, dated 2011).

Assay [1] has as its system Wistar rats. The note with it: cited from earlier work.
Assay [2] concerns male NIH Swiss mice. Briefly: Marble burying assay. The assay is classed as in vivo, mouse. The note with it: 30 min test, rotorod before. The text has this:
Marble burying in mice has been used to model anxiety disorders including obsessive-compulsive disorders (OCD) due to ethological study of the behavior (e.g. Gyertyan I. “Analysis of the marble burying response: Marbles serve to measure digging rather than evoke burying”, Behavioural Pharmacology 6: 24-31, (1995)) and due to the pharmacological effects of clinical standards (c.f., Njung'E K. Handley S L. “Evaluation of marble-burying behavior as a model of anxiety”, Pharmacology, Biochemistry & Behavior. 38: 63-67, (1991)); Borsini F., Podhoma J., and Marazziti, D. “Do animal models of anxiety predict anxiolytic effects of antidepressants?”, Psychopharmacology 163: 121-141, (2002)).
House experimentally-naïve male, NIH Swiss mice (Harlan Sprague-Dawley, Indianapolis, Ind.) weighing between 28-35 g in groups of 12 for at least three days prior to testing in a vivarium with 12 h light and dark cycles. Conduct experiments during the light cycle in a dimly lit experimental testing room. Dose mice with vehicle or test compound and, after a specified pretreatment interval (generally 30 min.), place each mouse individually on a rotorod (Ugo Basile 7650) operating at a speed of 6 revolutions/min. and observe for falling. […]
Clinically effective standard compounds suppress marble burying at doses that are devoid of motor-impairing effects as measured on the rotorod. […]
On the technique in general: Falling from the rotarod earlier than controls is read as motor impairment.

Assay [3] deals with male NIH Swiss mice. Nature of the assay: Nestlet shredding. Type of assay: in vivo, mouse. The note with it: 30 min test. The text has this:
Mice naturally will construct nests of material available in their living environment. Since this behavior is obsessive in nature, it has been used to model OCD (Xia Li, Denise Morrow and Jeffrey M. Witkin, “Decreases in nestlet shredding of mice by serotonin uptake inhibitors: comparison with marble burying”, Psychopharmacology, submitted Jul. 14, 2003). House experimentally-naïve male, NIH Swiss mice (Harlan Sprague-Dawley, Indianapolis, Ind.) weighing between 28-35 g in groups of 12 for at least three days prior to testing in a vivarium with a 12 h light/dark cycle. Conduct experiments during the light cycle in an experimental room with normal overhead fluorescent lighting. Dose mice with vehicle or test compound and after a specified pretreatment interval (generally 30 min.), place the mice individually in a 17×28×12 cm high plastic tub with about 5 mm sawdust shavings on the floor along with a pre-weighed multi-ply gauze pad (51 mm square). After 30 min., weigh the remainder of the gauze pad not removed by the mouse. Determine the weight of the gauze used for nestlet construction by subtraction. Compare the results for test compound treated mice to the results for vehicle control treated mice with Dunnett's test.
Clinically effective OCD treatment standard compounds suppress nestlet shredding at doses that are devoid of motor-impairing effects as measured by the rotorod test. […]

Assay [4] has as its system Wistar rats. Nature of the assay: Schedule-induced polydipsia. The assay is classed as in vivo, rat. The source says:
Schedule-Induced Polydipsia
Food-deprived rats exposed to intermittent presentations of food will drink amounts of water that are far in excess of their normal daily intake and in excess of their intake when given all of their food at one time (Falk J L. “Production of polydipsia in normal rats by an intermittent food schedule”, Science 133: 195-196, (1961)). This excessive behavior is persistent and has been used to model OCD.
Maintain Wistar rats on a food restricted diet (to maintain 85% free feeding weight), but with free access to water. Train the rats in a behavioral testing chamber to press a lever to receive a food pellet under a fixed interval schedule, such that the rats are rewarded with a 45 mg food pellet the first time they press a lever after a 120 second interval has elapsed. The fixed interval is then reset to 120 seconds and the process repeated. Thus, during a 90 min. test session, the rats can earn a maximum of 45 pellets. The behavioral chamber is also equipped with a water bottle that is weighed before and after the session to determine the amount of water consumed.
Administer test compounds on Tuesdays and Fridays. […] Compare the rates of lever pressing and water consumption for each animal's performance during sessions after test compound treatment with that animal's performance during control sessions, expressed as a percent of the control rate. […]

Assay [5] deals with male NIH Swiss mice. The note with it: cited from earlier work.

Molecules are shown by their SMILES.

Consider `CN(C)CCCN1c2ccccc2CCc2ccc(Cl)cc21` [chlomipramine], for which, in assay [1], the “Schedule-induced polydipsia (clinically effective OCD treatment standards)” value is listed as “suppress schedule-induced polydipsia without producing notable changes in motor patterns, food intake, or behavior the following day”.
For the compound `CN(C)CCCN1c2ccccc2Sc2ccc(Cl)cc21` [chlorpromazine], in assay [2], the “Marble burying behavior (with rotorod performance)” value is on record as “decrease marble burying only at doses that also disrupt rotorod performance”.
In the case of `C[C@H](N)Cc1ccccc1` [d-amphetamine], the “Nestlet shredding (with motor effects)” value in assay [3] is reported as “decreases nestlet shredding only at doses that produce motoric side effects”. The “Suppression of excessive drinking with co-administration of 5-HT2C antagonist” value in assay [4] is “not prevented by the 5HT2C receptor antagonist”. The “Schedule-induced polydipsia (excessive drinking)” value in assay [4] (90 min session) is recorded as “decreases excessive drinking only at behaviorally stimulating doses”.
In the case of `CNCCC(Oc1ccc(C(F)(F)F)cc1)c1ccccc1` (stereo not shown) [fluoxetine], the “Marble burying (clinical standards, literature)” value in assay [5] is recorded as “decrease burying”. Also, in assay [1], the “Schedule-induced polydipsia (clinically effective OCD treatment standards)” value is “suppress schedule-induced polydipsia without producing notable changes in motor patterns, food intake, or behavior the following day”.
